Assay results from patent publication US12312333B2, “SK channel positive allosteric modulators” (Chapman University, priority 2021, dated 2025).

Target: T1, rat KCa2.2a (UniProt P0DP23+P70604)
T1 construct: expressed in transfected cells; host or cells: HEK293
Test: Inside-out patch-clamp potentiation of KCa2.2a channels expressed in HEK293 cells
Assay type: cell-based
Conditions: for activity / potency on KCa2.2a channels / EC50: inside-out patch; for EC50: HEK293, 0.15 μM Ca2+, current at −90 mV, read-out: EC50 (mean ± SEM, μM) on potentiating KCa2.2a channels; for efficacy (Emax) on KCa2.2a channels: normalized to 10 μM Ca2+
Description: The impact of adding one substituent group at C4 of the cyclohexane moiety of CyPPA with either electron donating (OH (2a), NH2 (2b), CH2OH (2c), and OCH3 (2d)) or electron-withdrawing groups (F (2e) and NO2 (2f)) was explored. The potency of the newly synthesized compounds compared to the template CyPPA was measured via inside-out patch clamp electrophysiology recordings with KCa2.2a channels heterologously expressed in HEK293 cells (FIG. 1A). […] The responses induced by 10 μM Ca^2+ are considered the maximal currents of the KCa2.2a channels. To evaluate the efficacy (Emax) of compounds on KCa2.2a channels, the current amplitudes at −90 mV in response to the maximal concentration of compounds were normalized to that obtained at 10 μM Ca^2+ (I/Imax (%), FIG. 1C).
The effect of newly synthesized compounds on the KCa2.x/KCa3.1 channels was investigated as previously described (Nam, Y. W.; et al, Acta Physiol (Oxf) 2020, e13552; Nam, Y. W.; et al. Scientific reports 2018, 8 (1), 10749). Briefly, the rat KCa2.2a, human KCa2.1, human KCa2.3 or human KCa3.1 channels cDNA constructs were either generated in-house or through molecular cloning services (Genscript). The channel cDNAs, along with CaM and GFP, at a ratio of 7:4:2 (ORF ratios), were transfected into HEK293 cells by the calcium-phosphate method. KCa currents were recorded 1-2 days after transfection, with an Axon200B amplifier (Molecular Devices) at room temperature. The resistance of the patch electrodes ranged from 3-5 MΩ. The pipette solution contained (in mM): 140 KCl, 10 Hepes (pH 7.4), 1 MgSO4. The bath solution containing (in mM): 140 KCl, 10 Hepes (pH 7.2), 1 EGTA, 0.1 Dibromo-BAPTA, and 1 HEDTA was mixed with Ca^2+ to obtain the desired free Ca^2+ concentrations, calculated using the software by Chris Patton of Stanford University (https://somapp.ucdmc.ucdavis.edu/pharmacology/bers/maxchelator/webmaxc/webmaxcS.htm). The Ca^2+ concentrations were verified using a Ca^2+ calibration buffer kit (Thermo Fisher Scientific). Briefly, a standard curve was generated using the Ca^2+ buffers from the kit and a fluorescence Ca^2+ indicator. Then, the Ca^2+ concentrations of the bath solution were determined through interpolation on the standard curve.
High resistance seals (>1 GΩ) were formed before inside-out patches were obtained. The seal resistance of inside-out patches was >1 GΩ, when the intracellular face was initially exposed to a zero-Ca^2+ bath solution. Currents were recorded by repetitive 1-s-voltage ramps from −100 mV to +100 mV from a holding potential of 0 mV. The currents were filtered at 2 kHz and digitized at a sampling frequency of 10 kHz. At the end of experiment, the integrity of the patch was examined by switching the bath solution back to the zero-Ca^2+ buffer. Data from patches, which maintained the seal resistance (>1 GΩ) after solution changes, were used for further analysis.
To measure the effect of CyPPA (Alomone Labs) and newly synthesized compounds, the intracellular face was exposed to bath solutions with 0.15 μM Ca^2+. One minute after switching of bath solutions, ten sweeps with a 1-s interval were recorded at a series of concentrations of compound in the presence of 0.15 μM Ca^2+. The maximal KCa2.x/KCa3.1 current in response to 10 μM Ca^2+ was then recorded.
Patch-clamp recordings were analyzed using Clampfit 10.5 (Molecular Devices LLC) and concentration-response curves were analyzed in GraphPad Prism 9.0.2 (GraphPad Software Inc.). To construct the concentration-dependent potentiation of channel activities by compound, the current amplitudes at −90 mV in response to various concentrations of the compound were normalized to that obtained at a maximal concentration of compound. The normalized currents were plotted as a function of the concentrations of the compound. EC50 values and Hill coefficients were determined by fitting the data points to a standard concentration-response curve (Y=100/(1+(X/EC50)^−Hill)). […]

Compound: Cc1cc(Nc2ccc(C(F)(F)F)cc2)nc(-n2nc(C)cc2C)n1 [Compound 2s, 2-(3,5-Dimethyl-1H-pyrazol-1-yl)-6-methyl-N-(4-(trifluoromethyl)-phenyl)pyrimidin-4-amine]
- activity / potency on KCa2.2a channels (HEK293): did not significantly change the potency compared with CyPPA
- EC50: 3.45 ± 0.42 µM

Compound: Cc1cc(NC2CCC(O)CC2)nc(-n2nc(C)cc2C)n1 (centres unmarked) [Compound 2a, 4-((2-(3,5-Dimethyl-1H-pyrazol-1-yl)-6-methylpyrimidin-4-yl)amino)cyclohexan-1-ol]
- EC50: > 100 µM

Compound: Cc1cc(Nc2ccc(F)c(Cl)c2)nc(-c2coc(C)n2)n1 [Compound 6b, N-(3-Chloro-4-fluorophenyl)-6-methyl-2-(2-methyloxazol-4-yl)pyrimidin-4-amine]
- EC50: 3.59 ± 0.33 µM
- efficacy (Emax) on KCa2.2a channels: retained their efficacy

Compound: N^1-(2,5-Difluorophenyl)-6-(3,5-dimethyl-1H-pyrazol-1-yl)pyrimidine-2,4-diamine [Compound 3f]
- EC50: > 100 µM

Compound: Cc1cc(NC(Cc2ccc(C#N)cc2)C(=O)O)nc(-n2nc(C)cc2C)n1 (centres unmarked) [Compound 2h, 3-(4-Cyanophenyl)-2-((2-(3,5-dimethyl-1H-pyrazol-1-yl)-6-methylpyrimidin-4-yl)amino)propanoic acid]
- EC50: > 100 µM

Compound: Cc1cc(Nc2cc(F)ccc2Cl)nc(-n2nc(C)cc2C)n1 [Compound 2r, N-(2-Chloro-5-fluorophenyl)-2-(3,5-dimethyl-1H-pyrazol-1-yl)-6-methylpyrimidin-4-amine]
- EC50: 2.97 ± 0.27 µM

Compound: Cc1cc(Nc2ccc([N+](=O)[O-])cc2)nc(-n2nc(C)cc2C)n1 [Compound 2l, 2-(3,5-Dimethyl-1H-pyrazol-1-yl)-6-methyl-N-(4-nitrophenyl)pyrimidin-4-amine]
- activity / potency on KCa2.2a channels (HEK293): inactive
- EC50: > 100 µM

Compound: Cc1cc(Nc2ccc(S)cc2)nc(-n2nc(C)cc2C)n1 [Compound 2k, 4-((2-(3,5-Dimethyl-1H-pyrazol-1-yl)-6-methylpyrimidin-4-yl)amino)-benzenethiol]
- activity / potency on KCa2.2a channels (HEK293): inactive
- EC50: > 100 µM

Compound: Cc1cc(NC2CCC([N+](=O)[O-])CC2)nc(-n2nc(C)cc2C)n1 (centres unmarked) [Compound 2f, 2-(3,5-Dimethyl-1H-pyrazol-1-yl)-6-methyl-N-(4-nitrocyclohexyl)pyrimidin-4-amine]
- EC50: > 100 µM

Compound: N^1-(3-Chloro-4-(trifluoromethyl)phenyl)-6-(3,5-dimethyl-1H-pyrazol-1-yl)pyrimidine-2,4-diamine [Compound 3g]
- EC50: > 100 µM

Compound: Cc1cc(Nc2cc(Cl)cc(C(F)(F)F)c2)nc(-n2nc(C)cc2C)n1 [Compound 2u, N-(3-Chloro-5-(trifluoromethyl)phenyl)-2-(3,5-dimethyl-1H-pyrazol-1-yl)-6-methylpyrimidin-4-amine]
- EC50: > 100 µM

Compound: COC1CCC(Nc2cc(C)nc(-n3nc(C)cc3C)n2)CC1 (centres unmarked) [Compound 2d, 2-(3,5-Dimethyl-1H-pyrazol-1-yl)-N-(4-methoxycyclohexyl)-6-methylpyrimidin-4-amine]
- Emax (HEK293, current at −90 mV at maximal compound concentration normalized to 10 μM Ca2+, read-out: Emax on KCa2.2a channels (I/Imax)): 77.3 ± 4.95%
- EC50: 49.7 ± 4.38 µM

Compound: Cc1cc(Nc2ccc(Cl)cc2F)nc(-n2nc(C)cc2C)n1 [Compound 2p, N-(4-Chloro-2-fluorophenyl)-2-(3,5-dimethyl-1H-pyrazol-1-yl)-6-methyl-pyrimidin-4-amine]
- EC50: 1.99 ± 0.11 µM

Compound: N^1-(3-Chloro-4-fluorophenyl)-2-(3,5-dimethyl-1H-pyrazol-1-yl)pyrimidine-4,6-diamine [Compound 4]
- activity / potency on KCa2.2a channels (HEK293): reduced potency
- EC50: 6.59 ± 0.64 µM
- efficacy (Emax) on KCa2.2a channels: retaining their efficacy

Compound: N^1-(2-Chloro-5-fluorophenyl)-6-(3,5-dimethyl-1H-pyrazol-1-yl)pyrimidine-2,4-diamine [Compound 3e]
- EC50: > 100 µM

Compound: N^1-(3-Chloro-4-fluorophenyl)-6-(3,5-dimethyl-1H-pyrazol-1-yl)pyrimidine-2,4-diamine [Compound 3b]
- EC50: > 100 µM

Compound: Cc1cc(NCCc2ccc([N+](=O)[O-])cc2)nc(-n2nc(C)cc2C)n1 [Compound 2g, 2-(3,5-Dimethyl-1H-pyrazol-1-yl)-6-methyl-N-(4-nitrophenethyl)pyrimidin-4-amine]
- EC50: > 100 µM

Compound: Cc1cc(NC(Cc2ccc(F)c(F)c2)C(=O)O)nc(-n2nc(C)cc2C)n1 (centres unmarked) [Compound 2j, 3-(3,4-Difluorophenyl)-2-((2-(3,5-dimethyl-1H-pyrazol-1-yl)-6-methylpyrimidin-4-yl)amino)propanoic acid]
- EC50: > 100 µM

Compound: Cc1cn(-c2nc(C)cc(Nc3cc(Cl)ccc3F)n2)cn1 [Compound 5a, N-(5-Chloro-2-fluorophenyl)-6-methyl-2-(4-methyl-1H-imidazol-1-yl)pyrimidin-4-amine]
- EC50: 4.51 ± 0.44 µM
- efficacy (Emax) on KCa2.2a channels: retained their efficacy

Compound: Cc1cc(Nc2cc(Cl)ccc2F)nc(-c2coc(C)n2)n1 [Compound 6a, N-(5-Chloro-2-fluorophenyl)-6-methyl-2-(2-methyloxazol-4-yl)pyrimidin-4-amine]
- activity / potency on KCa2.2a channels (HEK293): lower potency than 2q
- EC50: 13.8 ± 1.68 µM
- efficacy (Emax) on KCa2.2a channels: retained their efficacy

Compound: COc1cc2nc(Nc3cc(C)nc(-n4nc(C)cc4C)n3)[nH]c2cc1OC [Compound 2w, N-(2-(3,5-Dimethyl-1H-pyrazol-1-yl)-6-methylpyrimidin-4-yl)-5,6-dimethoxy-1H-benzo[d]imidazol-2-amine]
- EC50: > 100 µM

Compound: Cc1cc(Nc2cccc(F)c2F)nc(-n2nc(C)cc2C)n1 [Compound 2m, N-(2,3-Difluorophenyl)-2-(3,5-dimethyl-1H-pyrazol-1-yl)-6-methyl-pyrimidin-4-amine]
- EC50: 5.03 ± 0.59 µM

Compound: Cc1cc(NC2CCC(F)CC2)nc(-n2nc(C)cc2C)n1 (centres unmarked) [Compound 2e, 2-(3,5-Dimethyl-1H-pyrazol-1-yl)-N-(4-fluorocyclohexyl)-6-methylpyrimidin-4-amine]
- EC50: > 100 µM

Compound: N^1-(5-Chloro-2-fluorophenyl)-6-(3,5-dimethyl-1H-pyrazol-1-yl)pyrimidine-2,4-diamine [Compound 3c]
- EC50: > 100 µM

Compound: Cc1cc(N[C@@H](Cc2ccc(O)cc2)C(=O)O)nc(-n2nc(C)cc2C)n1 [Compound 2i, (2-(3,5-Dimethyl-1H-pyrazol-1-yl)-6-methylpyrimidin-4-yl)tyrosine]
- EC50: > 100 µM

Compound: N^1-(4-Chloro-2-fluorophenyl)-6-(3,5-dimethyl-1H-pyrazol-1-yl)pyrimidine-2,4-diamine [Compound 3d]
- EC50: > 100 µM

Compound: Cc1cc(NC2CCC(CO)CC2)nc(-n2nc(C)cc2C)n1 (centres unmarked) [Compound 2c, (4-((2-(3,5-Dimethyl-1H-pyrazol-1-yl)-6-methylpyrimidin-4-yl)amino)cyclohexyl) methanol]
- EC50: > 100 µM

Compound: N^1-(3-Chlorophenyl)-6-(3,5-dimethyl-1H-pyrazol-1-yl)pyrimidine-2,4-diamine [Compound 3a]
- EC50: > 100 µM

Compound: Cc1cc(C)n(-c2cc(C)c(Nc3ccc(F)c(Cl)c3)nn2)n1 [Compound 7, N-(3-Chloro-4-fluorophenyl)-6-(3,5-dimethyl-1H-pyrazol-1-yl)-4-methylpyridazin-3-amine]
- activity / potency on KCa2.2a channels (HEK293): reduced potency
- EC50: 4.32 ± 0.32 µM
- efficacy (Emax) on KCa2.2a channels: retaining their efficacy
